Source: patent US9034403B2, “Yeast extract containing γ-Glu-X or γ-Glu-X-Gly and a method for producing the same” (AJINOMOTO CO., INC., priority 2010, dated 2015)
Peptide text beside a SMILES is read from it.

Tests used:
[1] = tested on: Saccharomyces cerevisiae S288C strain; assay: Addition of Val-Gly to the S288C strain in SDP medium, γ-Glu-Val-Gly in dry cells; assay type: cell-based; conditions: Val-Gly 100 ppm added to SDP medium in advance, culture 24 hours
Protocol: One loop of the S288C strain was inoculated into SDP medium (ammonium sulfate used for the preparation of the SD medium was replaced with proline, final concentration of proline was 0.1 g/L, 50 ml in a 500 ml-volume Sakaguchi flask), and cultured at 30° C. for 24 hours with shaking at a velocity of 120 rpm. Absorbance of the resulting culture broth was measured, the culture broth was inoculated into SDP medium (400 ml in a 2 L-volume conical flask with baffle fins, two or more flasks) so that OD660 was 0.01 at the start of the culture, and culture was performed at 30° C. for 24 hours with shaking by rotation at a velocity of 120 rpm. To the SDP medium, Val-Gly (purchased from Bachem) was added in advance to a final concentration of 100 ppm. Using the culture broth, the amount of γ-Glu-Val-Gly in dry cells was calculated in the same manner as that of Example 2.

[2] = tested on: S288C, S288C PADH1-HGT1, S288C PADH1-PTR2; assay: γ-Glu-Val-Gly producing ability from Val-Gly of Hgt1p or Ptr2p overproducing strains; assay type: cell-based, Saccharomyces cerevisiae; conditions: 100 ppm Val-Gly in SD medium, 20 hours
Protocol: S288C PADH1-HGT1, Hgt1p overproducing strain obtained in Example 12, S288C PADH1-PTR2, Ptr2p overproducing strain obtained in Example 12, and their parental strain S288C were evaluated for their γ-Glu-Val-Gly producing abilities from Val-Gly. Each strain was cultivated in 50-ml tubes containing 10 ml of SD medium with 100 ppm Val-Gly as a final concentration. Tubes were inoculated by overnight culture of corresponding strain at initial OD600=0.01, and placed in rotation shaker at 240 rpm, 30° C. Cultivation time was for 20 hours. Then, cells from 2 ml of broth culture were harvested by centrifugation, and washed with 1 ml of milliQ water three times. Then, washed cells were suspended in 1 ml of milliQ and incubated at 70° C. for 10 min with a water bath to extract intracellular materials. After cell debris and the extract were separated by centrifugation, the aqueous phase was transferred to a clean vial and then the vial was vacuum-dried. Thus, the dried extract was prepared. Then γ-Glu-Val-Gly in the dried extract was measured with LC-MS/MS analysis as described in Example 12.

In the case of `CC(C)[C@H](N)C(=O)NCC(=O)O` [Val-Gly] (H-Val-Gly-OH), the “γ-Glu-Val-Gly in dry cells” value [1] was 2 ppm, the “γ-Glu-Val-Gly in the dried extract” value ([2]; strain S288C PADH1-HGT1) was 0.03 μg 1^−1 OD600^−1 and the “γ-Glu-Val-Gly in the dried extract” value ([2]; strain S288C PADH1-PTR2) was 8.89 μg 1^−1 OD600^−1. The “γ-Glu-Val-Gly in the dried extract” value ([2]; strain S288C) was 0.04 μg 1^−1 OD600^−1.
